Experimental data reported in US10457691B2, “Macrocyclic kinase inhibitors and uses thereof” (Dana-Farber Cancer Institute, Inc., priority 2014, dated 2019).

Columns and labels:
Assay type in all cases: biochemical
IR = IR (Homo sapiens, UniProt P06213); test: Protein kinase assay ([γ-32P] ATP), IR; conditions: read-out: Activity of the protein kinase when treated with compound I-1 (% control)
Protocol: (§1) In another set of experiments, the activities of the compounds described herein against various protein kinases were determined according to the methods reported in Hastie et al., Nature Protocols, 2006, 1, 968-971.
(§2) Enzyme dilution buffer. This buffer consisted of 50 mM Tris-HCl, pH 7.5, 0.1 mM EGTA, 1 mg ml^−1 bovine serum albumin and 0.1% (vol/vol) 2-mercaptoethanol.
(§3) 10× concentrated assay buffer. An assay buffer of 500 mM Tris-HCl, pH 7.5, 1 mM EGTA, and 100 mM magnesium acetate was used for assay of a wide variety of protein kinases. In some experiments, other cofactors were included (e.g., calcium ions and calmodulin were included for assay of calcium-calmodulindependent protein kinases).
(§4) 1 mM [γ-^32P] ATP. The specific activity of the [γ-^32P] ATP solution was 1×10^5 to 1×10^6 c.p.m. per nmol depending on what was needed to produce an optimal signal/noise ratio. […] To measure the concentration of ATP, a sample of such a stock solution was diluted to 20 μM, and the absorbance of the diluted sample was measured at 259 nm. The absorbance of a 20-μM stock solution of ATP at 259 nm was about 0.31. […] ATP to produce a radioactivity of 1×10^5 to 1×10^6 c.p.m. per nmol. […]
(§5) 13) Measure radioactivity in the samples by Cerenkov counting (e.g., without liquid scintillation fluid) in a liquid scintillation counter using a “^32P program”. […]

EIF2AK3 = EIF2AK3 (Homo sapiens, UniProt Q9NZJ5); test: Protein kinase assay ([γ-32P] ATP), EIF2AK3; conditions: read-out: Activity of the protein kinase when treated with compound I-1 (% control)
Protocol: as §1, §2, §3, §4, §5

DAPK1 = DAPK1 (Homo sapiens, UniProt P53355); test: Protein kinase assay ([γ-32P] ATP), DAPK1; conditions: read-out: Activity of the protein kinase when treated with compound I-1 (% control)
Protocol: as §1, §2, §3, §4, §5

MINK1 = MINK1 (Homo sapiens, UniProt Q8N4C8); test: Protein kinase assay ([γ-32P] ATP), MINK1; conditions: read-out: Activity of the protein kinase when treated with compound I-1 (% control)
Protocol: as §1, §2, §3, §4, §5

RIPK2 = RIPK2 (Homo sapiens, UniProt O43353); test: Protein kinase assay ([γ-32P] ATP), RIPK2; conditions: read-out: Activity of the protein kinase when treated with compound I-1 (% control)
Protocol: as §1, §2, §3, §4, §5

BRK = BRK (Homo sapiens, UniProt Q13882); test: Protein kinase assay ([γ-32P] ATP), BRK; conditions: read-out: Activity of the protein kinase when treated with compound I-1 (% control)
Protocol: as §1, §2, §3, §4, §5

STK33 = STK33 (Homo sapiens, UniProt Q9BYT3); test: Protein kinase assay ([γ-32P] ATP), STK33; conditions: read-out: Activity of the protein kinase when treated with compound I-1 (% control)
Protocol: as §1, §2, §3, §4, §5

AMPK = test: Protein kinase assay ([γ-32P] ATP), AMPK
Protocol: as §1, §2, §3, §4, §5

ZAP70 = ZAP70 (Homo sapiens, UniProt P43403); test: Protein kinase assay ([γ-32P] ATP), ZAP70; conditions: read-out: Activity of the protein kinase when treated with compound I-1 (% control)
Protocol: as §1, §2, §3, §4, §5

TTBK1 = TTBK1 (Homo sapiens, UniProt Q5TCY1); test: Protein kinase assay ([γ-32P] ATP), TTBK1; conditions: read-out: Activity of the protein kinase when treated with compound I-1 (% control)
Protocol: as §1, §2, §3, §4, §5

TTK = TTK (Homo sapiens, UniProt P33981); test: Protein kinase assay ([γ-32P] ATP), TTK; conditions: read-out: Activity of the protein kinase when treated with compound I-1 (% control)
Protocol: as §1, §2, §3, §4, §5

p38a MAPK = p38a MAPK (Homo sapiens, UniProt Q16539); test: Protein kinase assay ([γ-32P] ATP), p38a MAPK; conditions: read-out: Activity of the protein kinase when treated with compound I-1 (% control)
Protocol: as §1, §2, §3, §4, §5

GCK = GCK (Homo sapiens, UniProt Q12851); test: Protein kinase assay ([γ-32P] ATP), GCK; conditions: read-out: Activity of the protein kinase when treated with compound I-1 (% control)
Protocol: as §1, §2, §3, §4, §5

EPH-B3 = EPH-B3 (Homo sapiens, UniProt P54753); test: Protein kinase assay ([γ-32P] ATP), EPH-B3; conditions: read-out: Activity of the protein kinase when treated with compound I-1 (% control)
Protocol: as §1, §2, §3, §4, §5

EPH-B4 = EPH-B4 (Homo sapiens, UniProt P54760); test: Protein kinase assay ([γ-32P] ATP), EPH-B4; conditions: read-out: Activity of the protein kinase when treated with compound I-1 (% control)
Protocol: as §1, §2, §3, §4, §5

CSK = CSK (Homo sapiens, UniProt P41240); test: Protein kinase assay ([γ-32P] ATP), CSK; conditions: read-out: Activity of the protein kinase when treated with compound I-1 (% control)
Protocol: as §1, §2, §3, §4, §5

JNK1 = JNK1 (Homo sapiens, UniProt P45983); test: Protein kinase assay ([γ-32P] ATP), JNK1; conditions: read-out: Activity of the protein kinase when treated with compound I-1 (% control)
Protocol: as §1, §2, §3, §4, §5

[1] = 0.1 μM of compound I-1, DMSO control = 100%
[2] = 1 μM of compound I-1, DMSO control = 100%

Chain of GCK (Q12851 whole entry): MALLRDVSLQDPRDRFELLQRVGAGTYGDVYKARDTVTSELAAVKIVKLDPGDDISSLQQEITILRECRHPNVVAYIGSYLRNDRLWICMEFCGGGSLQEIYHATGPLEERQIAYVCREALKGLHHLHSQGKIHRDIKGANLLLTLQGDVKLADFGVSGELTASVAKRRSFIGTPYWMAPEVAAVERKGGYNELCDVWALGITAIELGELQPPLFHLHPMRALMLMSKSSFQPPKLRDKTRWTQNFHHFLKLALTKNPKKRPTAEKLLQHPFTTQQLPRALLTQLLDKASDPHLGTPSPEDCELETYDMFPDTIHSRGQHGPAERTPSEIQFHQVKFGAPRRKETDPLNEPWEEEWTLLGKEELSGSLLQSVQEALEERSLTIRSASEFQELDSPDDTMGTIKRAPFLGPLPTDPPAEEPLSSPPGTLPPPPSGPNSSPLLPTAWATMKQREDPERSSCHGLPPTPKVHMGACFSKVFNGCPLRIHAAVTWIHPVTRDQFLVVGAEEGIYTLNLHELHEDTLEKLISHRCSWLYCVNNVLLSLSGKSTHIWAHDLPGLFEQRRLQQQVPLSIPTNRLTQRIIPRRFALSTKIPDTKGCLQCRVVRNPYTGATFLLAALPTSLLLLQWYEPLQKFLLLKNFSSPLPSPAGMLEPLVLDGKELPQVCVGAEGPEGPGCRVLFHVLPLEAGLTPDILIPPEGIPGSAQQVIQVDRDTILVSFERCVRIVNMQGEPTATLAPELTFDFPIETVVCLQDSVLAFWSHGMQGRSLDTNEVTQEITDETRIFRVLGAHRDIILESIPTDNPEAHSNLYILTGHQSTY
Chain of CSK (P41240 whole entry): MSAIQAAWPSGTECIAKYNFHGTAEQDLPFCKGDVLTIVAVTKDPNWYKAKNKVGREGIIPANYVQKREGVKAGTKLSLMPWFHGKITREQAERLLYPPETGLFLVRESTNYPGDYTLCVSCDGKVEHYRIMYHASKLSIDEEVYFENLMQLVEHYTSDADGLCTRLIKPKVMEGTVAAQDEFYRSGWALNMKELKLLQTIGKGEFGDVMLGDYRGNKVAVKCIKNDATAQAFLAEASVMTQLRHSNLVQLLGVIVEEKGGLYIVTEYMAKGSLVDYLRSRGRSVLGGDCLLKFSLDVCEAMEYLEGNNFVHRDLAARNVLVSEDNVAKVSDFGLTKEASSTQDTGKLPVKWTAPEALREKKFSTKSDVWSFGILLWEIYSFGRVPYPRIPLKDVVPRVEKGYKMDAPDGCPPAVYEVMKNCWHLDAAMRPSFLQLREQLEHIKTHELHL
Chain of RIPK2 (O43353 whole entry, species assumed): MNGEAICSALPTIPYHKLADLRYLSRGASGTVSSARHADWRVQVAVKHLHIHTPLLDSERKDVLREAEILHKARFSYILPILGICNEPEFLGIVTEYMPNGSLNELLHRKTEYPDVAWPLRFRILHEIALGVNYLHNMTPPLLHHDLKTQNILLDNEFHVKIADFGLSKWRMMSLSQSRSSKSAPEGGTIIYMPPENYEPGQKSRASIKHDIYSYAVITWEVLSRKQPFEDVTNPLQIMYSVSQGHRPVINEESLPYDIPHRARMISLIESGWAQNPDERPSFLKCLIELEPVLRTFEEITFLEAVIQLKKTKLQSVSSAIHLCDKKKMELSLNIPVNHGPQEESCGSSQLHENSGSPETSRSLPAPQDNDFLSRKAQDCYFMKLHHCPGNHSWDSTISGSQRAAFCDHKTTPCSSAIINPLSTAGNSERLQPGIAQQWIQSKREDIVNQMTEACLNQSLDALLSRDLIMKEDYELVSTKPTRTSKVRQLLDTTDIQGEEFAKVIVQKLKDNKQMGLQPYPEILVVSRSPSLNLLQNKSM
Chain of EPH-B3 (P54753 34-998): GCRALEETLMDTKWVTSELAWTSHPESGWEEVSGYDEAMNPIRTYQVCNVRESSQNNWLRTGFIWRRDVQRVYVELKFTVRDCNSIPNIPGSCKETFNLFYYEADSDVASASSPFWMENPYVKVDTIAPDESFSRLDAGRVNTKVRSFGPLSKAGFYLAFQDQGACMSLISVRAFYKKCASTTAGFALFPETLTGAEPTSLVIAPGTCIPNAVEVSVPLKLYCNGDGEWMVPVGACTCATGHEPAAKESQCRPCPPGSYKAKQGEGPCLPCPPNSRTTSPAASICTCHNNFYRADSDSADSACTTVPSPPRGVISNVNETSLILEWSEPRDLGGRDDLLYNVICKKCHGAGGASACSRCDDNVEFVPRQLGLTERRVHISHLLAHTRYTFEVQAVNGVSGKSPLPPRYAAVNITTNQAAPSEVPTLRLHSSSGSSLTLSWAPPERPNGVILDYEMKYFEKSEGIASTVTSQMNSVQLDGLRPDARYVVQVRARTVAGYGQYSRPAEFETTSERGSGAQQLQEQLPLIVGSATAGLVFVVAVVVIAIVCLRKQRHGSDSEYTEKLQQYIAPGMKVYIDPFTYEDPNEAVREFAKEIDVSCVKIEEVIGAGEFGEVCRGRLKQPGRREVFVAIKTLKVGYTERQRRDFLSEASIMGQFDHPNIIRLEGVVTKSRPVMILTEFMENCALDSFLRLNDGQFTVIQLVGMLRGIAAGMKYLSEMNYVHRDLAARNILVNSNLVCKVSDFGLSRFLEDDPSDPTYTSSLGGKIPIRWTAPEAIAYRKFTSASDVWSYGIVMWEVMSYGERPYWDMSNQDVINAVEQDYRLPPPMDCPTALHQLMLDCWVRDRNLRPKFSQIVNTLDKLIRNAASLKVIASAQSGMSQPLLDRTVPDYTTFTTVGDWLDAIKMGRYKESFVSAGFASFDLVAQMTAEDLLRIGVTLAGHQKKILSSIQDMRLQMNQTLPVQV
Chain of p38a MAPK (Q16539 whole entry): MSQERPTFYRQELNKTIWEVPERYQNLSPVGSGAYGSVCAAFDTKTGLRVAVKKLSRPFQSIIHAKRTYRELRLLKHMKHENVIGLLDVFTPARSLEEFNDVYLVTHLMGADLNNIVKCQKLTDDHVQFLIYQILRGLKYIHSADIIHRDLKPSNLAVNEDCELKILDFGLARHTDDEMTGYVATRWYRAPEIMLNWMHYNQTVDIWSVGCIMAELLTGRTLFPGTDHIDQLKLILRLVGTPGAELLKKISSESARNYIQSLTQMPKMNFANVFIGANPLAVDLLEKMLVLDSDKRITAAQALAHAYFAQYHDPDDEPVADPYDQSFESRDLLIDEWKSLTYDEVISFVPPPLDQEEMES
Chain of STK33 (Q9BYT3 whole entry, species assumed): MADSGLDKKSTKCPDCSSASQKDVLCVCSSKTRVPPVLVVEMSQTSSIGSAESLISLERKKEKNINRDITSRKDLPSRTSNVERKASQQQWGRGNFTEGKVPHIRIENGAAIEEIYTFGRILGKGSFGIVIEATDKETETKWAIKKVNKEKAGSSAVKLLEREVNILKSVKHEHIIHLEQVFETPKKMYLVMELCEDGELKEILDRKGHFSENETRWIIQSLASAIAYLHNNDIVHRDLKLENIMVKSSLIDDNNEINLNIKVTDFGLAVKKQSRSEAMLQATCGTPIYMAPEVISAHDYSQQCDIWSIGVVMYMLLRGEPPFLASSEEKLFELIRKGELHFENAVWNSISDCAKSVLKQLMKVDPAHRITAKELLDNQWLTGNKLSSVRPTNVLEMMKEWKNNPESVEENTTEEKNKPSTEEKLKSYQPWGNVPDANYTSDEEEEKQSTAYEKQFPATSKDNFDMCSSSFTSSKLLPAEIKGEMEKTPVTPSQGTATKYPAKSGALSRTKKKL
Chain of TTBK1 (Q5TCY1 whole entry, species assumed): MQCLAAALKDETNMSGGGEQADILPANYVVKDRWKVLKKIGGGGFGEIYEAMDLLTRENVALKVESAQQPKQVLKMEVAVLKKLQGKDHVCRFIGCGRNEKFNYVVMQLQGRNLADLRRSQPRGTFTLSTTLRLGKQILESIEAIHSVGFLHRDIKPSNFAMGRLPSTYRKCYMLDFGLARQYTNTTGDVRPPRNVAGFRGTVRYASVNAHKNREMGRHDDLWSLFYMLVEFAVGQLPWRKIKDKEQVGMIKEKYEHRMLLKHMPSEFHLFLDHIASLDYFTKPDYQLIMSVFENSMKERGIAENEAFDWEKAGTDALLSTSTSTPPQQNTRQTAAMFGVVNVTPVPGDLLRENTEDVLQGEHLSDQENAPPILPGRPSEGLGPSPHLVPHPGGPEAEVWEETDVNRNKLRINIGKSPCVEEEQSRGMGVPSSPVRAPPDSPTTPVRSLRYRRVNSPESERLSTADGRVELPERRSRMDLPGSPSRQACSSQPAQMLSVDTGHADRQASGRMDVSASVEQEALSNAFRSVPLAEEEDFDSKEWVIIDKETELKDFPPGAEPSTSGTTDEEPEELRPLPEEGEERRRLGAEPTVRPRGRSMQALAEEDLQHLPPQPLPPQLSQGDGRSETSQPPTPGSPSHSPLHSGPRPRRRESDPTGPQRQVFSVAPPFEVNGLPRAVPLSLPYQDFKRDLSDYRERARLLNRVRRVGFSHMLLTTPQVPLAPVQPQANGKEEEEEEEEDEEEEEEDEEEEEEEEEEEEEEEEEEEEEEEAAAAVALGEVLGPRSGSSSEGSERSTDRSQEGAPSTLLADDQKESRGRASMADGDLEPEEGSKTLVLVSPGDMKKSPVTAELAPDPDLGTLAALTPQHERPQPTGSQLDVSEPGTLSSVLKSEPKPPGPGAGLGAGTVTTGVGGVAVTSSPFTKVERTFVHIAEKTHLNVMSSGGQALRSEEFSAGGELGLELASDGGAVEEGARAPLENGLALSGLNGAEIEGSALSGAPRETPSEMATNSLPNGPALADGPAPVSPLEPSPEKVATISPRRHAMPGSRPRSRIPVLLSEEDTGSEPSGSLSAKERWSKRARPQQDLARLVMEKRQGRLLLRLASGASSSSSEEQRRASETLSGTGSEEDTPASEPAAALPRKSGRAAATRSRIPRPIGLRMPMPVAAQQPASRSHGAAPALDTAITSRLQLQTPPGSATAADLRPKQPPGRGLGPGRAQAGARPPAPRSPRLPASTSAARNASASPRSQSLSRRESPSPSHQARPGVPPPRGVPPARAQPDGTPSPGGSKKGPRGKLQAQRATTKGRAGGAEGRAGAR

Work on Cc1cccc(C)c1NC(=O)N1C/C=C\COc2cccc(c2)Nc2cc1ncn2 [Compound I-1] yielded a remaining activity at 0.1 µM (IR; [1]) of 102%, a remaining activity at 1 µM (IR; [2]) of 93% and a remaining activity at 0.1 µM (EIF2AK3; [1]) of 97%. For the same compound, the remaining activity at 1 µM (EIF2AK3; [2]) was 80%, the remaining activity at 0.1 µM (DAPK1; [1]) was 99% and the remaining activity at 1 µM (DAPK1; [2]) was 85%. The remaining activity at 0.1 µM (MINK1; [1]) was 46%, the remaining activity at 1 µM (MINK1; [2]) was 9% and the remaining activity at 0.1 µM (RIPK2; [1]) was 33%. It also gave a remaining activity at 1 µM (RIPK2; [2]) of 5%, a remaining activity at 0.1 µM (BRK; [1]) of 36% and a remaining activity at 1 µM (BRK; [2]) of 12%. The remaining activity at 0.1 µM (STK33; [1]) was 116%, the remaining activity at 1 µM (STK33; [2]) was 100% and the “Activity of the protein kinase when treated with compound I-1 (% control)” value (AMPK; [1]) was 96 % control. The “Activity of the protein kinase when treated with compound I-1 (% control)” value (AMPK; [2]) was 91 % control, the remaining activity at 0.1 µM (ZAP70; [1]) was 90% and the remaining activity at 1 µM (ZAP70; [2]) was 98%. The remaining activity at 0.1 µM (TTBK1; [1]) was 115%, the remaining activity at 1 µM (TTBK1; [2]) was 80% and the remaining activity at 0.1 µM (TTK; [1]) was 99%. For the same compound, the remaining activity at 1 µM (TTK; [2]) was 79%, the remaining activity at 0.1 µM (p38a MAPK; [1]) was 79% and the remaining activity at 1 µM (p38a MAPK; [2]) was 14%. The remaining activity at 0.1 µM (GCK; [1]) was 71%, the remaining activity at 1 µM (GCK; [2]) was 16% and the remaining activity at 0.1 µM (EPH-B3; [1]) was 25%. The remaining activity at 1 µM (EPH-B3; [2]) was 2%, the remaining activity at 0.1 µM (EPH-B4; [1]) was 55% and the remaining activity at 1 µM (EPH-B4; [2]) was 4%. The remaining activity at 0.1 µM (CSK; [1]) was 101%, the remaining activity at 1 µM (CSK; [2]) was 10% and the remaining activity at 0.1 µM (JNK1; [1]) was 93%. For the same compound, the remaining activity at 1 µM (JNK1; [2]) was 72%.
